From US8518882B2, “Methods and compositions for ameliorating or inhibiting decline in memory or intelligence or improving same” (priority 1998, dated 2013)

Tests used:
PC12 cells [1] = assay: NGF-induced neurite outgrowth, branching and length in PC12 cells; format: cell-based
Procedure: (§1) PC12 cells were maintained in Minimal Essential Medium (MEM; Invitrogen, Carlsbad, Calif.) supplemented with 10% fetal bovine serum (FBS) at 37° C. Experimental incubations were for 2 or 4 days in medium containing 50 ng/ml mouse 2.5 S (2.5 subunit) NGF and 1% FBS, with or without test compounds. NGF and FBS were obtained from Invitrogen.
PC12 cells were sparsely plated on collagen-coated 60 mm culture dishes in MEM containing 1% fetal bovine serum. […] All treatments were performed 24 h after plating. At the end of the treatment period, images were obtained with a phase-contrast Zeiss Axioplan 2 microscope, using OpenLab software. Six digital images were captured for each dish, for a total of 18 to 24 images per treatment group Approximately 300 cells were quantified for each treatment group for each experiment. Experiments were performed in triplicate. Quantification of neurites, including neurite branching and neurite length, was performed by one more researchers blinded to experimental groups Neurite length was measured using the public domain NIH software “Image J.” Processes longer than the diameter of the cell body were counted as neurites. Only process-bearing cells were analyzed.

PC12 cells [2] = assay: Intracellular UTP and CTP levels in PC12 cells by HPLC; format: cell-based; details: 2 days with NGF; uridine 50 μM, UTP 100 μM, cytidine 50 μM
Procedure: (§2) Brain tissue or cells was dissolved in methanol/chloroform (1:2 vol/vol), centrifuged, and the aqueous phase was dried under vacuum, resuspended in 100-200 μL water and separated by HPLC on an ion-exchange column (Alltech Hypersil APS-2, 5 μM, 250×4.6 mm). CDP-choline was eluted with a linear gradient of NaH2PO4 buffers A (1.75 mM NaH2PO4, pH 2.9) and B (500 mM, pH 4.5), which allowed resolution of CDP-choline from closely co-eluting substances such as UMP over 40 min. The retention time for CDP-choline was 9.5 min. Individual nucleotide peaks were detected by UV absorption at […], and were identified by comparison with the positions of authentic standards, as well as by the addition of nucleotide standards to selected samples.
Levels of intracellular UTP and CTP were analyzed by HPLC as described for Example 5, except that 5 mM NaH2PO4, pH 2.65 was used as buffer A.

IP signaling = assay: PI turnover / inositol phosphate formation in NGF-differentiated PC12 cells; format: cell-based; details: for Formation of IP: NGF-differentiated PC12 cells, 1 hour, UTP 100 μM (p<0.05), uridine 50 μM (p<0.01)
Procedure: Analysis of PI turnover was performed as described by (Nitsch R M et al, J Neurochem 69: 704-12, 1997). Briefly, cells were labeled metabolically for 36 h with 1.25 microCurie (μCi)/dish of myo-[2-^3H]inositol (17.0 Curie/mmol; Amersham Biosciences) in serum-free MEM, washed twice with Hank's balanced salt solution (HBSS), and treated for 15 min with 10 mM lithium chloride in HBSS. Drugs were added in the presence of 10 mM lithium for 60 min at 37° C. Cells were lysed with ice-cold methanol, and lipids were removed by extraction with chloroform/methanol/water (2:2:1 by volume). Labeled water-soluble inositol phosphates were separated from free [^3H]inositol by ion-exchange chromatography, using AG 1-X8 columns (Bio-Rad), and 1M ammonium formate and 0.1M formic acid as eluent. Radioactivity was quantified by liquid scintillation spectrometry.

PC12 cells [3] = assay: Uptake of uridine into PC12 cells; format: cell-based
[4] = Conversion of uridine to cytidine in plasma and brain of gerbils; format: in vivo; details: 250 mg/kg uridine orally, 60 min
PC12 cells [5] = assay: Intracellular CDP-choline levels in PC12 cells; format: cell-based; details: after 50 minutes
Procedure: as §2, §1

NF-70 = NF-70 levels in PC12 cells (Western blotting); format: cell-based
Procedure: as §1
(§3) Equal amounts of protein (40 μg protein/lane) were loaded for sodium dodecyl sulfate-polyacrylamide gel electrophoresis (4-15% SDS PAGE; Bio-Rad, Hercules, Calif.). Prior to gel electrophoresis, bromphenol blue solution (0.07%) was added to each sample. Proteins were separated, transferred onto polyvinylidene difluoride (PVDF) membranes (Immobilon-P, Millipore), and blocked with 5% bovine serum albumin (Tris-buffered saline/0.15% Tween 20) for 1 h. After 3 10 min rinses in Tris-buffered saline (TBST), blots were incubated in TBST with various antibodies against the proteins of interest, including NF-70, NF-M (1: 2000, 1: 5000, respectively; Calbiochem, La Jolla, Calif.) at 4° C. overnight on an orbital shaker. […] Films were digitized using a Supervista S-12 scanner with a transparency adapter (UMAX Technologies, Freemont, Calif.). Analysis was performed using the public domain NIH Image program (NIH V.1.61).

NF-M = NF-M levels in PC12 cells (Western blotting); format: cell-based
Procedure: as §1, §3

[6] = test system: P2Y2, P2Y4 and P2Y6 receptors; assay: P2Y receptor expression in NGF-differentiated PC12 cells; format: cell-based; details: compared with cells exposed to NGF alone
Procedure: Western blots utilized rabbit anti-P2Y2, anti-P2Y4 (both from Calbiochem); or rabbit anti-P2Y6 (Novus Biologicals, Littleton, Colo.).
PC 12 cells were treated as described above, except they were grown on 12 mm glass cover slips (A Daigger & Co., Vernon Hills, Ill.) coated with collagen. Proteins were visualized using immunofluorescence. Briefly, the cells were fixed with 4% paraformaldehyde, permeabilized with 0.25% Triton X-100, blocked in 10% normal goat serum, and incubated overnight in the appropriate antibodies (mouse anti-NF-70, and either rabbit anti-P2Y2, rabbit anti-P2Y4 or rabbit anti-P2Y6). For P2Y2 and P2Y4 visualization, control cultures were incubated with primary antibody plus a control antigen in order to ensure that the immuno-staining would be specific. Control antigen was not available for the P2Y6 receptor. Cells were then incubated in fluorochrome-conjugated secondary antibodies for 1 hour (goat anti-rabbit ALEXA 488 and goat anti-mouse ALEXA 568; Molecular Probes, Eugene, Oreg.) and mounted on glass slides with mounting media with or without DAPI (Vector Laboratories, Burlingame, Calif.). Control antigens provided with the primary antibodies were used to ensure that immuno-staining was specific. Digital images were obtained on a Zeiss (Oberkochen, Germany) Axioplan microscope with OpenLab software, using a Zeiss Plan-Neofluor 40× oil-immersion objective.

With `Nc1ccn([C@@H]2O[C@H](CO)[C@@H](O)[C@H]2O)c(=O)n1` [cytidine, reference compound] the Neurite outgrowth (PC12 cells [1]; NGF-exposed cells, cytidine) was “had no effect on neurite outgrowth”, the “Intracellular CTP levels” value (PC12 cells [2]) was “did not significantly affect” and the “Intracellular UTP levels” value (PC12 cells [2]) was “did not significantly affect”.
For `O=c1ccn([C@@H]2O[C@H](COP(=O)(O)OP(=O)(O)OP(=O)(O)O)[C@@H](O)[C@H]2O)c(=O)[nH]1` [UTP, uridine-5′-triphosphate], the Neurite outgrowth (PC12 cells [1]; with NGF, 10 and 50 μM, 4 days, vs NGF only) was “significantly (p<0.01) enhanced”, the “Intracellular CTP levels” value (PC12 cells [2]) was “did not significantly affect” and the “Intracellular UTP levels” value (PC12 cells [2]) was “did not significantly affect”. For the same molecule, the “Formation of IP” value (IP signaling) was “significantly increased”.
With `Cc1nc(N=Nc2ccc(S(=O)(=O)O)cc2S(=O)(=O)O)c(COP(=O)(O)O)c(C=O)c1O` [PPADS, pyridoxal-phosphate-6-azophenyl-2′,4′ disulfonic acid, reference compound] the “Inhibition of uptake of uridine into PC12 cells” value (shortened to “Inhibition”) (PC12 cells [3]) was “None of the P2Y receptor antagonists inhibited the uptake of uridine” and the “Block of stimulation of IP signaling by UTP” value (IP signaling; PPADS 100 μM) was “significantly (p<0.05) blocked”.
For `O=c1ccn([C@@H]2O[C@H](CO)[C@@H](O)[C@H]2O)c(=O)[nH]1` [uridine], the “Conversion to cytidine in brain versus plasma” value [4] was “more efficiently converted to cytidine than in plasma”, the “Intracellular CDP-choline levels” value (PC12 cells [5]) was “statistically significant increase” and the Average neurite length (PC12 cells [1]; NGF-differentiated cells) was “did not significantly affect”. The Production of neurites (PC12 cells [1]; absence of NGF, 50 μM, 2 or 4 days) was “did not result in the production of neurites”, the “Number of neurite branch points per cell” value (PC12 cells [1]; with NGF, 50 μM, 4 days) was “significantly (p<0.01) increased” and the “Number of neurites per cell” value (PC12 cells [1]; with NGF, 2-day treatment or lower concentrations (10, 25 μM)) was “had no effect”. The NF-70 expression (NF-70; NGF plus 50 μM, 4 days, vs NGF only, p<0.01) was “increased”, the NF-70 level (NF-70; absence of NGF) was “had no effect” and the NF-M expression (NF-M; NGF plus 50 μM, 4 days, vs NGF only, p<0.001) was “increased”. For the same molecule, the NF-M level (NF-M; absence of NGF) was “had no effect”, the “Intracellular CTP levels” value (PC12 cells [2]) was “significantly (p<0.05) increased” and the “Intracellular UTP levels” value (PC12 cells [2]) was “significantly (p<0.05) increased”. For the same molecule, the “Expression of P2Y2, P2Y4 and P2Y6 receptors” value [6] was “did not affect the expression” and the “Formation of IP” value (IP signaling) was “significantly increased”.
With `Nc1c(S(=O)(=O)O)cc(Nc2ccc(Nc3nc(Cl)nc(Nc4cccc(S(=O)(=O)O)c4)n3)c(S(=O)(=O)O)c2)c2c1C(=O)c1ccccc1C2=O` [RB-2, reactive blue 2] the “Inhibition” value (PC12 cells [3]) was “None of the P2Y receptor antagonists inhibited the uptake of uridine”.
For `Cc1ccc(C(=O)Nc2ccc(S(=O)(=O)O)c3cc(S(=O)(=O)O)cc(S(=O)(=O)O)c23)cc1NC(=O)c1cccc(NC(=O)Nc2cccc(C(=O)Nc3cc(C(=O)Nc4ccc(S(=O)(=O)O)c5cc(S(=O)(=O)O)cc(S(=O)(=O)O)c45)ccc3C)c2)c1` [suramin], the “Inhibition” value (PC12 cells [3]) was “None of the P2Y receptor antagonists inhibited the uptake of uridine”.
